Measured values as given in article PMC11999280, “Design and screening of novel endosomal escape compounds that enhance functional delivery of oligonucleotides in vitro” (Molecular Therapy. Nucleic Acids, 2025).

Legend:
Assay type in all cases: cell-based
[1] = test system: cell lines carrying an mCherry-GAL9-reporter; test: GAL9 puncta formation upon EEE dose escalation (images); conditions: dose escalation 0.31 to 10 μM
Protocol: We further studied endosomal leakage by quantifying GAL9 recruitment upon EEE dose escalation, from 0.31 to 10 μM. For this purpose, we used cell lines carrying an mCherry-GAL9-reporter, where endosomal rupture could be quantified by measuring GAL9 clustering as a puncta event representative of endosomal remodeling.
Experiments assessing GAL9 localization as an indicator for endosomal remodeling were performed as previously described[15] using 8× stablemCherry-GAL9 expressing cell lines, SHSY5Y, U2OS, 16HBE, NCI-H358, HuH7, HepG2, HEK293, and HeLa. For mCherry-GAL9 recruitment, 3,000 or 6,500 cells/well (depending upon cell line) were seeded into 384-well CellCarrier Ultra plates 24 h prior to treatment (PerkinElmer, catalog no. 6007558). An Echo 655T acoustic dispenser (Labcyte) was used for EEE dose-response preparation by transferring to the cell plate. At assay endpoints, cells were PBS washed, 4% paraformaldehyde fixed at room temperature […] (VWR, catalog no. 9713.1000), and nuclei stained with PBS +1 μg/mL Hoechst 33342 (Thermo Fisher Scientific, catalog no. H21492).
Imaging was performed using a spinning-disk confocal microscope (Yokogawa: CV8000) with a ×20w objective (numerical aperture 1.0). Cells and mCherry-GAL9 structure identification and quantification were done using Columbus image-analysis software (PerkinElmer version 2.9.0). […]

[2] = test system: HeLa_Luc705 cells (pLuc/705 splice-switching reporter); test: Functional 705-SSO delivery, luciferase splice-switching assay; conditions: for Luciferase expression compared to reference: mean from >3 independent experiments
Outline: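 Cells seeded at 10,000/well were pre-incubated 24 h with 1–2 μM 2′-O-methyl phosphorothioate 705-SSO, then exposed to endosomal escape enhancer at the stated concentrations. After 24 h, cells were lysed in 0.1% Triton X-100 and firefly luciferase luminescence was read as the splice-correction signal. LF2000 lipofection with 100–200 nM SSO served as transfection control.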

[3] = test system: mCherry-GAL9 expressing 16HBE cells; test: GAL9 recruitment assay, 16HBE; conditions: calculated mean from >3 independent exp.
Outline: (§1)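 Stable 8× mCherry-GAL9 cell lines seeded 24 h before acoustic dose-response compound addition; endpoint cells fixed with 4% paraformaldehyde, Hoechst-stained. Spinning-disk confocal imaging (×20 water objective) with image-based identification and quantification of mCherry-GAL9 structures as endosomal remodeling read-out. N = 3 experiments, duplicate wells.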

[4] = test system: mCherry-GAL9 expressing HepG2 cells; test: GAL9 recruitment assay, HepG2; conditions: calculated mean from >3 independent exp.
Outline: as §1

[5] = test system: mCherry-GAL9 expressing SHSY5Y cells; test: GAL9 recruitment assay, SHSY5Y; conditions: calculated mean from >3 independent exp.
Outline: as §1

For `COc1nn(C2CCNCC2)cc1Nc1ncc(F)c(-n2ccc3c(C#N)cccc32)n1` [EEE4], the “EEE concentration with clear GAL9 puncta formation” value [1] was ≥ 1.25 µM, the “SSO-mediated splice-switching upon co-treatment with bafilomycin A1” value ([2]; EEE4 + bafilomycin (0.5 μM) co-incubation) was “significantly reduced” and the “Luciferase expression compared to reference” value ([2]; HeLa-Luc705 + 1 µM SSO, EEE 0.5 µM) was 3.610. For the same compound, the “Luciferase expression compared to reference” value ([2]; HeLa-Luc705 + 1 µM SSO, EEE 2 µM) was 139.083, the “Luciferase expression compared to reference” value ([2]; HeLa-Luc705 + 1 µM SSO, EEE 4 µM) was 39.821 and the “Luciferase expression compared to reference” value ([2]; HeLa-Luc705 + 1 µM SSO, EEE 5 µM) was 13.700. The “Luciferase expression compared to reference” value ([2]; HeLa-Luc705 + 2 µM SSO, EEE 5 µM) was 0.020, the “Splice-switching with 24-h SSO pre-incubation relative to SSO co-treatment” value ([2]; dose response, luciferase readout at time points after EEE addition) was 20 times and the Splice-switching enhancement ([2]; using 2–2.5 μM EEE) was “above 100 fold”. The “Gal9 response compared to reference” value ([3]; EEE 0.31 µM) was 0.021, the “Gal9 response compared to reference” value ([3]; EEE 0.62 µM) was 0.039 and the “Gal9 response compared to reference” value ([3]; EEE 1.25 µM) was 0.395. The “Gal9 response compared to reference” value ([3]; EEE 2.5 µM) was 0.626, the “Gal9 response compared to reference” value ([3]; EEE 5 µM) was 0.501 and the “Gal9 response compared to reference” value ([3]; EEE 10 µM) was 0.146. For the same compound, the “Gal9 response compared to reference” value ([4]; EEE 0.31 µM) was 0.010, the “Gal9 response compared to reference” value ([4]; EEE 0.62 µM) was 0.014 and the “Gal9 response compared to reference” value ([4]; EEE 1.25 µM) was 0.030. For the same compound, the “Gal9 response compared to reference” value ([4]; EEE 2.5 µM) was 0.410, the “Gal9 response compared to reference” value ([4]; EEE 5 µM) was 0.444 and the “Gal9 response compared to reference” value ([4]; EEE 10 µM) was 0.480. For the same compound, the “Gal9 response compared to reference” value ([5]; EEE 0.31 µM) was 0.016, the “Gal9 response compared to reference” value ([5]; EEE 0.62 µM) was 0.315 and the “Gal9 response compared to reference” value ([5]; EEE 1.25 µM) was 0.678. For the same compound, the “Gal9 response compared to reference” value ([5]; EEE 2.5 µM) was 0.499, the “Gal9 response compared to reference” value ([5]; EEE 5 µM) was 0.389 and the “Gal9 response compared to reference” value ([5]; EEE 10 µM) was 0.026.
